The values that follow come from US11351168B1 (Celgene CAR LLC, priority 2008, dated 2022).

The experiment concerns BTK signaling in Ramos cells. The experiment can be described thus: BTK Ramos cellular assay (phosphorylation of BTK substrate PLCγ2). The class given is cell-based, human. Conditions: Homo sapiens, 1 hour compound, anti-IgM stimulation, read-out: BTK Inhibition (Ramos cellular). How it is done: Compounds I-2, I-4, and I-7 were assayed in Ramos human Burkitt lymphoma cells. Ramos cells were grown in suspension in T225 flasks, spun down, resuspended in 50 ml serum-free media and incubated for 1 hour. Compound was added to Ramos cells in serum free media to a final concentration of 1, 0.1, 0.01, or 0.001 μM. Ramos cells were incubated with compound for 1 hour, washed again and resuspended in 100 ul serum-free media. Cells were then stimulated with 1 μg of goat F(ab′)2 Anti-Human IgM and incubated on ice for 10 minutes to activate B cell receptor signaling pathways. After 10 minutes, the cells were washed once with PBS and then lysed on ice with Invitrogen Cell Extraction buffer. 16 μg total protein from lysates were loaded on gel and blots were probed for phosphorylation of the BTK substrate PLCγ2.

On to `C=CC(=O)Nc1cccc(Nc2ncc(F)c(Nc3cccc(C)c3)n2)c1` [Compound I-3, N-(3-(5-fluoro-4-(m-tolylamino)pyrimidin-2-ylamino)phenyl) acrylamide], for which the IC50 lay within 10 to 100 nM. The figure for `C=CC(=O)Nc1ccc(C)c(Nc2ncc(C)c(Nc3cccc(C)c3)n2)c1` [Compound I-8, N-(4-methyl-3-(5-methyl-4-(m-tolylamino)pyrimidin-2-ylamino)phenyl)acrylamide] is 100 to 1000 nM; for `C=CC(=O)N1CCCC(Nc2nc(Nc3ccccc3)ncc2C)C1` (centres unmarked) [Compound I-27] it is 10 to 100 nM; for `C=CC(=O)Nc1cccc(Nc2nc(Nc3cccc(S(N)(=O)=O)c3)ncc2C)c1` [Compound I-33, N-(3-(5-methyl-2-(3-sulfamoylphenylamino)pyrimidin-4-ylamino)phenyl)acrylamide] it is less than 10 nM. In the case of `C=CC(=O)Nc1ccc(Nc2nc(Nc3ccccc3)ncc2C)cc1` [Compound I-39, N-(4-(5-methyl-2-(phenylamino)pyrimidin-4-ylamino)phenyl) acrylamide], the IC50 was in the range of 10 to 100 nM. The figure for `C=CC(=O)N1CCc2cc(Nc3nc(Nc4cccc(S(N)(=O)=O)c4)ncc3C)ccc2C1` [Compound I-40, 3-(4-(2-acryloyl-1,2,3,4-tetrahydroisoquinolin-6-ylamino)-5-methylpyrimidin-2-ylamino)benzenesulfonamide] is 10 to 100 nM. With `C=CC(=O)Nc1cccc(Nc2nc(Nc3cccc(OCCCNC(=O)OC(C)(C)C)c3)ncc2C)c1` [Compound I-45, tert-butyl 3-(3-(4-(3-acrylamidophenylamino)-5-methylpyrimidin-2-ylamino)phenoxy)propylcarbamate], the IC50 is less than 10 nM. The figure for `C=CC(=O)Nc1cccc(Nc2nc(Nc3ccc(N(C)CCOC)nc3)ncc2F)c1` [Compound I-77, N-(3-(5-fluoro-2-(6-((2-methoxyethyl)(methyl)amino)pyridin-3-ylamino)pyrimidin-4-ylamino)phenyl)acrylamide] is less than 10 nM; for `C=CC(=O)Nc1cccc(Nc2nc(Nc3ccc(OCC4CCN(C)CC4)nc3)ncc2F)c1` [Compound I-78, N-(3-(5-fluoro-2-(6-((1-methylpiperidin-4-yl)methoxy)pyridin-3-ylamino)pyrimidin-4-ylamino)phenyl)acrylamide] it is less than 10 nM; for `C=CC(=O)Nc1cccc(Nc2nc(Nc3ccc(OC4CCC4)nc3)ncc2F)c1` [Compound I-79, N-(3-(2-(6-cyclobutoxypyridin-3-ylamino)-5-fluoropyrimidin-4-ylamino)phenyl)acrylamide] it is less than 10 nM. Turning to `C=CC(=O)Nc1cccc(Nc2nc(Nc3ccc(OCCCS(C)(=O)=O)nc3)ncc2F)c1` [Compound I-80, N-(3-(5-fluoro-2-(6-(3-(methylsulfonyl)propoxy)pyridin-3-ylamino)pyrimidin-4-ylamino)phenyl)acrylamide], the IC50 was less than 10 nM.

Turning to `C=CC(=O)Nc1cccc(Nc2nc(Nc3ccc(OCc4ccccn4)c(Cl)c3)ncc2F)c1` [Compound I-86, N-(3-(2-(3-chloro-4-(pyridin-2-ylmethoxy)phenylamino)-5-fluoropyrimidin-4-ylamino)phenyl)acrylamide], the IC50 was less than 10 nM. As to `C=CC(=O)Nc1cc(Nc2nc(Nc3ccc(OCCOC)cc3)ncc2F)ccc1F` [Compound I-87, N-(2-fluoro-5-(5-fluoro-2-(4-(2-methoxyethoxy)phenylamino)pyrimidin-4-ylamino)phenyl)acrylamide], the IC50 was less than 10 nM. The figure for `[2H]C([2H])([2H])Oc1ccc(Nc2ncc(F)c(Nc3cccc(NC(=O)C=C)c3)n2)cn1` [Compound I-95, N-(3-(5-fluoro-2-(6-(trideutereomethoxy)pyridine-3-ylamino)pyrimidin-4-ylamino)phenyl)acrylamide] is less than 10 nM. The figure for `C=CC(=O)Nc1cccc(Nc2nc(Nc3ccc(OCCOC)nc3)ncc2F)c1` [Compound I-103, N-(3-(5-fluoro-2-(6-(2-methoxyethoxy)pyridine-3-ylamino)pyrimidin-4-ylamino)phenyl)acrylamide] is less than 10 nM; for `C=CC(=O)Nc1cccc(Nc2nc(Nc3cccc(OCCO)c3)ncc2F)c1` [Compound I-105, N-(3-(5-fluoro-2-(3-(2-hydroxyethoxy)phenylamino)pyrimidin-4-ylamino)phenyl)acrylamide] it is less than 10 nM; for `C=CC(=O)Nc1cc(Nc2nc(Nc3ccc(OC(C)C)nc3)ncc2F)ccc1Cl` [Compound I-107, N-(2-chloro-5-(5-fluoro-2-(6-isopropoxypyridin-3-ylamino)pyrimidin-4-ylamino)phenyl)acrylamide] it is 10 to 100 nM. The same measure for `C=CC(=O)Nc1cc(Nc2nc(Nc3ccc(OCCOC)cc3)ncc2F)ccc1Cl` [Compound I-108, N-(2-chloro-5-(5-fluoro-2-(4-(2-methoxyethoxy)phenylamino)pyrimidin-4-ylamino)phenyl)acrylamide]: 10 to 100 nM; for `C=CC(=O)Nc1cccc(Nc2nc(Nc3cccc(OCC(=O)N4CCOCC4)c3)ncc2F)c1` [Compound I-110, N-(3-(5-fluoro-2-(3-(2-morpholino-2-oxoethoxy)phenylamino)pyrimidin-4-ylamino)phenyl)acrylamide]: 10 to 100 nM.

On to `C=CC(=O)N(C)Cc1ccc(Nc2nc(Nc3ccc(OC)nc3)ncc2F)cc1` [Compound I-114, N-(4-(5-fluoro-2-(6-methoxypyridin-3-ylamino)pyrimidin-4-ylamino)benzyl)-N-methylacrylamide], for which the IC50 fell in the range of 10 to 100 nM. The same measure for `C=CC(=O)Nc1cccc(Nc2nc(Nc3cccc(OCC(C)(C)O)c3)ncc2F)c1` [Compound I-118, N-(3-(5-fluoro-2-(3-(2-hydroxy-2-methylpropoxy)phenylamino)pyrimidin-4-ylamino)phenyl)acrylamide]: less than 10 nM. The figure for `C=CC(=O)Nc1cccc(Nc2nc(Nc3ccc(OCCO)nc3)ncc2C(C)=O)c1` [Compound I-121, N-(3-{5-Acetyl-2-[6-(2-hydroxy-ethoxy)-pyridin-3-ylamino]-pyrimidin-4-ylamino}-phenyl)-acrylamide] is 10 to 100 nM; for `C=CC(=O)Nc1cccc(Nc2nc(Nc3ccc(OCCOC)nc3)ncc2C(C)=O)c1` [Compound I-122, N-(3-{5-Acetyl-2-[6-(2-methoxy-ethoxy)-pyridin-3-ylamino]-pyrimidin-4-ylamino}-phenyl)-acrylamide] it is less than 10 nM; for `C=CC(=O)Nc1cccc(Nc2nc(Nc3ccc(OCCOC)cc3)ncc2C(C)=O)c1` [Compound I-124, N-(3-{5-Acetyl-2-[4-(2-methoxy-ethoxy)-phenylamino]-pyrimidin-4-ylamino}-phenyl)-acrylamide] it is less than 10 nM. The same measure for `COc1ccc(Nc2ncc(F)c(Nc3cccc(NC(=O)/C=C/CN(C)C)c3)n2)cn1` [Compound I-125, (E)-4-(dimethylamino)-N-(3-(5-fluoro-2-(6-methoxypyridin-3-ylamino)pyrimidin-4-ylamino)phenyl)but-2-enamide]: 10 to 100 nM; for `C=CC(=O)Nc1cccc(Nc2nc(Nc3ccc4c(c3)N(C)CCO4)ncc2F)c1` [Compound I-126, N-(3-(2-(4-methyl-2,3-dihydrobenzo[1,4]oxazin-6-yl)amino-5-fluoropyrimidin-4-ylamino)phenyl)acrylamide]: 10 to 100 nM.
